Reference: ChEMBL document CHEMBL3886432, “Purinylpyridinylamino-2,4-difluorophenyl sulfonamide derivative, pharmaceutically acceptable salt thereof, preparation method thereof, and pharmaceutical composition with inhibitory activity against Raf kinase, containing same as active ingredient” (2015)

Target: Serine/threonine-protein kinase B-raf (Homo sapiens, UniProt P15056)
Test: The solutions in the tube were collected on the bottom via centrifugation and were reacted at 30° C. for 30 minutes.

Chain of Serine/threonine-protein kinase B-raf (P15056 whole entry): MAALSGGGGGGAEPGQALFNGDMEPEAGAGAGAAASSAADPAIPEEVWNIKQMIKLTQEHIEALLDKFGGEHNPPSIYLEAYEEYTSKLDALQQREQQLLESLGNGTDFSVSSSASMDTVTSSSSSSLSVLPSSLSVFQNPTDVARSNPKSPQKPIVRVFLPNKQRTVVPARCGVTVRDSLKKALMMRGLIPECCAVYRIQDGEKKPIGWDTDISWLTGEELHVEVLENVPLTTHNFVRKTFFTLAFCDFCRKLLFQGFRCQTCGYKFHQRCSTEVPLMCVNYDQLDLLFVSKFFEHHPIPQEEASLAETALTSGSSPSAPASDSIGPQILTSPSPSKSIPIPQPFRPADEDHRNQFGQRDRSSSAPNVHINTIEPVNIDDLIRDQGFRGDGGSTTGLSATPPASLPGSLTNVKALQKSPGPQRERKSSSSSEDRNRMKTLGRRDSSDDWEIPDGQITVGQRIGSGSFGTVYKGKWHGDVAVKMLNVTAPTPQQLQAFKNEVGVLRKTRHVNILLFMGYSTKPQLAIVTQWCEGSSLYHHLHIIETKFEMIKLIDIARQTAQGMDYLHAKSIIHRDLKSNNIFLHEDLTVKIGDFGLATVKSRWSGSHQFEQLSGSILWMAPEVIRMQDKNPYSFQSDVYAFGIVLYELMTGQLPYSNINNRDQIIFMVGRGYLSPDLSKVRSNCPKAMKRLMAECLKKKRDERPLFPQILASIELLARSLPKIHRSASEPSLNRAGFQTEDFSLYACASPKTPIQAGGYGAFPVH

IC50: 20 nM
SMILES: O=S(=O)(Nc1ccc(F)c(Nc2ncccc2-c2ncnc3[nH]cnc23)c1F)c1ccc(Cl)s1
